Results taken from patent US5344926A, “Process for producing staurosporine derivatives” (Kyowa Hakko Kogyo Co., Ltd., priority 1992, dated 1994).
In brackets after ≈: the same amount, converted by molar mass. Several values for one entry are separate records, joined by “and”; a condition that tells them apart may be missing. Equal entries are not always repeated. One block for each compound: values may come before it.

Experiments:
Protein kinase A = biological target: T1, Protein kinase A (Bos taurus, UniProt P00517); assay: Protein Kinase A Inhibitory Activity (crude enzyme partially purified from calf heart); type: biochemical; conditions: pH 6.8
T1 construct: partially purified from calf heart; from tissue; host or cells: calf heart, crude enzyme, partially purified
Description: (2) Protein Kinase A Inhibitory Activity
Protein kinase A inhibitory activity (PKA) was measured according to the method of Kuo, et al. [Biochemistry, 64, 1349 (1969)].
Subsequent procedures were conducted in a manner similar to the case of measuring protein kinase C inhibitory activity described above to determine IC50.

platelets = assay: Platelet increasing activity in Balb/c mice; type: in vivo; conditions: 20 mg/kg i.p. once a day for 5 days; for Number of platelets, individual mouse: 20 mg/kg; for Number of platelets (mean): mean of six mice
Description: Platelet increasing activity of Compound (I-1) was examined. Compound No. 1-α obtained in Example 13 was suspended in 0.3% carboxymethylcellulose aqueous solution containing 5% Tween 80. 0.2 ml of the suspension was intraperitoneally administered to six Balb/c mice (male, aged 7 weeks) at a dosage of 20 mg/kg once a day for 5 days. The blood (20 μl) was collected from the ophthalmic […] at the times, just before the test compound administration (Day 0), the 7th day (Day 7), the 14th day (Day 14), the 17th day (Day 17) and the 28th day (Day 28). The number of platelets was counted by a microcellcounter.

Protein kinase C = assay: Protein Kinase C Inhibitory Activity (crude enzyme partially purified from rat brain); conditions: for selective inhibitory activity on protein kinase C, compared with UCN-01: PKC vs PKA; for IC50 PKC: pH 7.5, 30° C., 3 minutes; for PKA/PKC: ratio of IC50 PKA to IC50 PKC
Description: (1) Protein Kinase C Inhibitory Activity
Protein kinase C inhibitory activity (PKC) was measured by the method of Kikkawa, et al. (Journal of Biological Chemistry, 257, 13341 (1982)].
That is, 10 μl of a test solution containing UCN-01, Compound No. 1-α or Compound No. 1-β was added to 250 μl of a solution containing 2.5 μmoles of magnesium acetate, 50 μg of Histone Type IIS (manufactured by Sigma Co., Ltd.), 20 μg of phosphatidyl serine, 0.8 μg of diolein, 25 nmoles of CaCl2, 5 μg of crude enzyme (partically purified from rat brain according to the method of Kikkawa, et al.) and 5 μmoles of Tris-hydrochloride buffer (pH 7.5), followed by incubation at 30° C. for 3 minutes. Then, phosphorylation was initiated by addition of 1.25 nmoles of [γ-^32 p]ATP(5 to 10×10^3 cpm/nmole), followed by incubation at 30° C. for 3 minutes. The reaction was stopped by adding 25% trichloroacetic acid (TCA), and the reaction solution was filtered through a cellulose acetate membrane (pore size of 0.45 μm) (manufactured by Toyo Filter Paper Co., Ltd.). After the membrane was washed four times with 5% TCA, radioactivity remaining on the membrane was measured. As a control, the same procedure as above was repeated without addition of the test solution and radioactivity was likewise measured. A concentration of the test solution showing 50% inhibition as compared with the control was expressed as IC50.

HeLa S3 cells = assay: Growth Inhibition Test on HeLa S3 Cells; type: cell-based; conditions: Homo sapiens, 1 h exposure, then 72 h incubation, Neutral Red, read-out: IC50 (cell growth inhibition)
Description: Growth Inhibition Test on HeLa S3 Cells
HaLa S3 cells were suspended in an MEM medium containing 10% fetal calf serum and 2 mM glutamine at a concentration of 3×10^4 cells/ml, and 0.1 ml of the cell suspension was put into each well of a 96-well microtiter plate.
After culturing at 37° C. overnight in a carbon dioxide gas incubator, 0.05 ml of a test sample appropriately diluted with the medium was added to each well. The cells were further cultured for one hour in the carbon dioxide gas incubator and the culture supernatant was removed. The residue was washed once with a phosphate buffer saline [PBS(-)] and 0.1 ml of a fresh medium was added to each well, and the cells were further incubated at 37° C. for 72 hours in the carbon dioxide gas incubator. After removal of the supernatant, 0.1 ml of culture medium containing 0.02% Neutral Red was added to each well, and the cells were further incubated at 37° C. for one hour in the carbon dioxide gas incubator to stain the cells. After removal of the culture supernatant, each well was washed once with a physiological saline, and the dye was extracted with 0.001N HCl/30% methanol. Absorbance of the extract at 550 nm was measured with a microplate reader. The cell growth inhibition percentage was calculated according to the following formula from the absorbance of the extract of the cells treated with the test compound in various concentrations and that of intact cells. [formula]
From the cell growth inhibition percentage thus obtained, the concentration of the test compound which inhibits cell growth by 50% (IC50) was determined.

[1] = Day 0 (just before administration)

- IC50 (Protein kinase A): 0.494 µM
- IC50 PKC (Protein kinase C): 2.2 ng/mL (≈ 4.18 nM)
- PKA/PKC (Protein kinase C): 118
SMILES: COC1C(N(C)CCO)CC2OC1(C)n1c3ccccc3c3c4c(c5c6ccccc6n2c5c31)C(=O)NC4O (stereo not drawn) [Compound No. 1-α]
- Number of platelets, relative value (platelets; Day 0 (= 100)): 100%
- Number of platelets, individual mouse (platelets; [1]): 81.8 and 89.6 and 75.0 and 89.7 and 97.0 and 86.5
- Number of platelets (mean) (platelets; [1]): 86.6
- Number of platelets, relative value (platelets; Day 7, relative to Day 0): 156.4%
- Number of platelets, individual mouse (platelets; Day 7): 128.3 and 119.2 and 130.1 and 153.8 and 141.0 and 140.1
- Number of platelets (mean) (platelets; Day 7): 135.4
- Number of platelets, relative value (platelets; Day 14, relative to Day 0): 139.8%
- Number of platelets, individual mouse (platelets; Day 14): 113.7 and 122.5 and 118.8 and 145.9 and 121.2 and 101.7
- Number of platelets (mean) (platelets; Day 14): 121.1
- Number of platelets, relative value (platelets; Day 17, relative to Day 0): 146.7%
- Number of platelets, individual mouse (platelets; Day 17): 115.0 and 113.6 and 111.9 and 159.1 and 137.1 and 125.5
- Number of platelets (mean) (platelets; Day 17): 127.0
- Number of platelets, relative value (platelets; Day 28, relative to Day 0): 135.1%
- Number of platelets, individual mouse (platelets; Day 28): 117.3 and 123.5 and 119.0 and 113.7 and 105.8 and 125.3
- Number of platelets (mean) (platelets; Day 28): 117.4
- selective inhibitory activity on protein kinase C, compared with UCN-01 (Protein kinase C): have a selective inhibitory activity on protein kinase C, compared with UCN-01

- IC50 (Protein kinase A): 0.703 µM
- IC50 PKC (Protein kinase C): 19 ng/mL (≈ 36.1 nM)
- PKA/PKC (Protein kinase C): 20
SMILES: COC1C(N(C)CCO)CC2OC1(C)n1c3ccccc3c3c4c(c5c6ccccc6n2c5c31)C(=O)NC4O (stereo not drawn) [Compound No. 1-β]
- selective inhibitory activity on protein kinase C, compared with UCN-01 (Protein kinase C): have a selective inhibitory activity on protein kinase C, compared with UCN-01

- IC50 (HeLa S3 cells): 2.2 µM
SMILES: COC1C(N(C)CCO)CC2OC1(C)n1c3ccccc3c3c4c(c5c6ccccc6n2c5c31)C(=O)NC4O (stereo not drawn) [Compound No. 1]

- IC50 (HeLa S3 cells): 1.9 µM
SMILES: COC1C(N(C)CC(O)CO)CC2OC1(C)n1c3ccccc3c3c4c(c5c6ccccc6n2c5c31)C(=O)NC4O (stereo not drawn) [Compound No. 2]

- IC50 (HeLa S3 cells): 4.6 µM
SMILES: COC1C(N(C)CCCC(=O)O)CC2OC1(C)n1c3ccccc3c3c4c(c5c6ccccc6n2c5c31)C(=O)NC4O (stereo not drawn) [Compound No. 3]

- IC50 (HeLa S3 cells): 2.2 µM
SMILES: COC1C(N(C)C(=O)CN2CCOCC2)CC2OC1(C)n1c3ccccc3c3c4c(c5c6ccccc6n2c5c31)C(=O)NC4O (stereo not drawn) [Compound No. 6]

- IC50 (HeLa S3 cells): 1.5 µM
SMILES: COC1C(N(C)C(=O)CN(C)C)CC2OC1(C)n1c3ccccc3c3c4c(c5c6ccccc6n2c5c31)C(=O)NC4O (stereo not drawn) [Compound No. 7]

SMILES: CN[C@@H]1C[C@H]2O[C@@](C)([C@@H]1OC)n1c3ccccc3c3c4c(c5c6ccccc6n2c5c31)C(=O)N[C@@H]4O [UCN-01, reference compound]
- IC50 PKC (Protein kinase C): 2 ng/mL (≈ 4.14 nM)
- PKA/PKC (Protein kinase C): 10
